In ChEMBL document CHEMBL3868587, “Heptaketides from an Endolichenic Fungus Biatriospora sp. and Their Antifungal Activity” (2016):
Values after ≈ are worked out from the molar mass of the structure shown. Active and inactive are the calls of the source. No cut-off for these calls is given here.

Key:
[1] = system: Candida albicans; assay: Antifungal activity against Candida albicans SC5314 by CLSI broth microdilution method; type: functional
[2] = Antifungal activity against fluconazole-resistant Candida albicans clinical isolate 144 by CLSI broth microdilution method; type: functional
[3] = system: Candida albicans; assay: Inhibition of CDR1/CDR2 in Candida albicans clinical isolate 24D assessed as potentiation of fluconazole-induced antifungal activity by measuring fluconazole MIC80 up to 8 ug/ml after 24 hrs by XTT based broth microdilution assay (reference value: >128 ug/ml)
[4] = Antifungal activity against fluconazole-resistant Candida albicans clinical isolate 18I by CLSI broth microdilution method; type: functional
[5] = Antifungal activity against fluconazole-resistant Candida albicans clinical isolate 145 by CLSI broth microdilution method; type: functional
[6] = system: Candida albicans; assay: Inhibition of CDR1/CDR2 in Candida albicans clinical isolate 145 assessed as potentiation of fluconazole-induced antifungal activity by measuring fluconazole MIC80 up to 8 ug/ml after 24 hrs by XTT based broth microdilution assay (reference value: >128 ug/ml)
[7] = system: Candida albicans; assay: Inhibition of CDR1/CDR2 in Candida albicans clinical isolate 147 assessed as potentiation of fluconazole-induced antifungal activity by measuring fluconazole MIC80 up to 8 ug/ml after 24 hrs by XTT based broth microdilution assay (reference value: >128 ug/ml)
[8] = system: Candida albicans; assay: Inhibition of CDR1/CDR2 in Candida albicans clinical isolate 142 assessed as potentiation of fluconazole-induced antifungal activity by measuring fluconazole MIC80 up to 8 ug/ml after 24 hrs by XTT based broth microdilution assay (reference value: >128 ug/ml)
[9] = Antifungal activity against fluconazole-resistant Candida albicans clinical isolate 147 by CLSI broth microdilution method; type: functional
[10] = system: Candida albicans; assay: Inhibition of CDR1/CDR2 in Candida albicans clinical isolate 18I assessed as potentiation of fluconazole-induced antifungal activity by measuring fluconazole MIC80 up to 8 ug/ml after 24 hrs by XTT based broth microdilution assay (reference value: >128 ug/ml)
[11] = Antifungal activity against fluconazole-resistant Candida albicans clinical isolate 142 by CLSI broth microdilution method; type: functional
[12] = system: Candida albicans; assay: Inhibition of CDR1/CDR2 in Candida albicans clinical isolate 144 assessed as potentiation of fluconazole-induced antifungal activity by measuring fluconazole MIC80 up to 8 ug/ml after 24 hrs by XTT based broth microdilution assay (reference value: >128 ug/ml)
[13] = Antifungal activity against fluconazole-resistant Candida albicans clinical isolate 24D by CLSI broth microdilution method; type: functional
[14] = Reduction in CDR2 mRNA expression in fluconazole-resistant Candida albicans clinical isolate 24D at 1 ug/ml measured after 12 hrs by qPCR method relative to control; type: functional
[15] = Reduction in CDR1 mRNA expression in fluconazole-resistant Candida albicans clinical isolate 24D at 1 ug/ml measured after 12 hrs by qPCR method relative to control; type: functional
[16] = system: Candida albicans; assay: Inhibition of CDR1/CDR2 in Candida albicans clinical isolate 24D assessed as potentiation of fluconazole-induced antifungal activity up to 8 ug/ml after 24 hrs by broth microdilution checkerboard assay
[17] = system: Candida albicans; assay: Inhibition of Candida albicans clinical isolate 24D CDR1/CDR2 assessed as inhibtion of glucose-induced rhodamine-123 efflux at 1 ug/ml measured after 30 mins by flow cytometry
[18] = system: Candida albicans; assay: Inhibition of CDR1/CDR2 in Candida albicans clinical isolate 142 assessed as potentiation of fluconazole-induced antifungal activity measured as reduction in fluconazole MIC80 up to 8 ug/ml after 24 hrs by XTT based broth microdilution assay relative to fluconazole
[19] = Antifungal activity against Candida albicans clinical isolate 147 after 24 hrs in presence of fluconazole by XTT based broth microdilution assay; type: functional
[20] = system: Candida albicans; assay: Inhibition of Candida albicans clinical isolate 24D CDR1/CDR2 assessed as inhibtion of glucose-induced rhodamine-123 efflux at 1 ug/ml measured after 30 mins by confocal microscopic analysis
[21] = system: Candida albicans; assay: Inhibition of CDR1/CDR2 in Candida albicans clinical isolate 147 assessed as potentiation of fluconazole-induced antifungal activity up to 8 ug/ml after 24 hrs by broth microdilution checkerboard assay
[22] = Upregulation of CDR1 mRNA expression in fluconazole-resistant Candida albicans clinical isolate 24D at 2 ug/ml measured after 12 hrs by qPCR method relative to control; type: functional
[23] = system: Candida albicans; assay: Inhibition of CDR1/CDR2 in Candida albicans clinical isolate 142 assessed as potentiation of fluconazole-induced antifungal activity up to 8 ug/ml after 24 hrs by broth microdilution checkerboard assay
[24] = system: Candida albicans; assay: Inhibition of CDR1/CDR2 in Candida albicans clinical isolate 18I assessed as potentiation of fluconazole-induced antifungal activity up to 8 ug/ml after 24 hrs by broth microdilution checkerboard assay
[25] = system: Candida albicans; assay: Antifungal activity against Candida albicans clinical isolate 142 after 24 hrs in presence of fluconazole by XTT based broth microdilution assay; type: functional; details: isolate 142, 24 h
[26] = Antifungal activity against Candida albicans clinical isolate 24D after 24 hrs in presence of fluconazole by XTT based broth microdilution assay; type: functional
[27] = system: Candida albicans; assay: Inhibition of CDR1/CDR2 in Candida albicans clinical isolate 145 assessed as potentiation of fluconazole-induced antifungal activity up to 8 ug/ml after 24 hrs by broth microdilution checkerboard assay
[28] = system: Candida albicans; assay: Antifungal activity against Candida albicans clinical isolate 145 after 24 hrs in presence of fluconazole by XTT based broth microdilution assay; type: functional; details: isolate 145, 24 h
[29] = Antifungal activity against Candida albicans clinical isolate 18I after 24 hrs in presence of fluconazole by XTT based broth microdilution assay; type: functional
[30] = Upregulation of CDR2 mRNA expression in fluconazole-resistant Candida albicans clinical isolate 24D at 2 ug/ml measured after 12 hrs by qPCR method relative to control; type: functional
[31] = system: Candida albicans; assay: Antifungal activity against Candida albicans clinical isolate 144 after 24 hrs in presence of fluconazole by XTT based broth microdilution assay; type: functional; details: isolate 144, 24 h
[32] = system: Candida albicans; assay: Inhibition of CDR1/CDR2 in Candida albicans clinical isolate 144 assessed as potentiation of fluconazole-induced antifungal activity up to 8 ug/ml after 24 hrs by broth microdilution checkerboard assay

Structure (SMILES): COc1cc(O)c2c(c1)C(=O)C(CC(C)=O)=C(C)C2=O
- MIC80 [1]: 64 µg/mL (≈ 233 µM)

Structure (SMILES): OC(Cn1cncn1)(Cn1cncn1)c1ccc(F)cc1F [FLUCONAZOLE]
- MIC80 [2]: > 128 µg/mL
- MIC80 [3]: 2 µg/mL
- MIC80 [4]: > 128 µg/mL
- MIC80 [5]: > 128 µg/mL
- MIC80 [6]: 4 µg/mL
- MIC80 [1]: 2 µg/mL (≈ 6.53 µM)
- MIC80 [7]: 2 µg/mL
- MIC80 [8]: 0.5 µg/mL
- MIC80 [9]: > 128 µg/mL
- MIC80 [10]: 1 µg/mL
- MIC80 [11]: > 128 µg/mL
- MIC80 [12]: 2 µg/mL
- MIC80 [13]: > 128 µg/mL

Structure (SMILES): COc1cc(O)c2c(c1)-c1oc(C)cc1C(=O)C2=O
- fold change (FC) [14]: 0.5
- MIC80 [2]: 16 µg/mL (≈ 62 µM)
- fold change (FC) [15]: 0.4
- fractional inhibitory concentration index (FICI) [16]: 0.03
- inhibition [17]: Active
- fold change (FC) [18]: > 256
- MIC80 [4]: 16 µg/mL (≈ 62 µM)
- MIC80 [19]: 0.125 µg/mL
- inhibition [20]: Active
- fractional inhibitory concentration index (FICI) [21]: 0.02
- fold change (FC) [22]: 2
- MIC80 [5]: 16 µg/mL (≈ 62 µM)
- fractional inhibitory concentration index (FICI) [23]: 0.01
- fractional inhibitory concentration index (FICI) [24]: 0.02
- MIC80 [1]: 16 µg/mL (≈ 62 µM)
- MIC80 [25]: 0.125 µg/mL
- MIC80 [26]: 0.25 µg/mL
- fractional inhibitory concentration index (FICI) [27]: 0.04
- MIC80 [9]: 16 µg/mL (≈ 62 µM)
- MIC80 [28]: 0.125 µg/mL
- MIC80 [29]: 0.25 µg/mL
- fold change (FC) [30]: 3.6
- MIC80 [11]: 16 µg/mL (≈ 62 µM)
- MIC80 [31]: 0.125 µg/mL
- fractional inhibitory concentration index (FICI) [32]: 0.02
- MIC80 [13]: 16 µg/mL (≈ 62 µM)

Structure (SMILES): CC1=CC2=C(CO1)C(=O)c1c(O)cc(O)cc1C2=O
- MIC80 [1]: 32 µg/mL (≈ 124 µM)

Structure (SMILES): CN(C/C=C/C#CC(C)(C)C)Cc1cccc2ccccc12 [TERBINAFINE]
- MIC80 [1]: 16 µg/mL (≈ 54.9 µM)

Structure (SMILES): COc1cc(O)c2c(c1)C(=O)C1=C(C2=O)[C@H](OC)O[C@@H](C)C1
- MIC80 [1]: 64 µg/mL (≈ 210 µM)
